Measurements taken from the NIST ThermoML archive (doi:10.1021/acs.jced.9b00286).
Numbers after ± are expanded uncertainties.

Details: Crystal; DSC

OCc1ccc(O[C@@H]2O[C@H](CO)[C@@H](O)[C@H](O)[C@H]2O)cc1 [gastrodin]
Triple point temperature: 429.75 ± 1.2 K
